Test results published in the supplement of paper PMC10307832.

How the values were obtained:
Experiment in all cases: relative viability (nuclei count vs DMSO), 5 days (fraction); higher = more cells survive
[1] = compound: CCN(CC)CCNC(=O)c1c(C)[nH]c(/C=C2\C(=O)Nc3ccc(F)cc32)c1C [Sunitinib] + CC1(C)CCC(c2ccc(Cl)cc2)=C(CN2CCN(c3ccc(C(=O)NS(=O)(=O)c4ccc(N[C@H](CCN5CCOCC5)CSc5ccccc5)c(S(=O)(=O)C(F)(F)F)c4)cc3)CC2)C1 [Navitoclax] (partner 0.5 µM)
Summary of the method: (§1)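 Relative viability was taken as the ratio of nuclei in treated wells to nuclei in vehicle wells. Lung cancer cell lines in 1536-well plates received compounds by pin tool one day after seeding, either one drug alone or a fixed anchor-drug dose plus five library-drug doses (not always all listed) in √10 steps. Nuclei were counted on 4× images after 5 days of treatment, and values are medians of duplicate plates.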

[2] = compound: CCN(CC)CCNC(=O)c1c(C)[nH]c(/C=C2\C(=O)Nc3ccc(F)cc32)c1C [Sunitinib] + C[C@@H](Oc1cc(-c2cnn(C3CCNCC3)c2)cnc1N)c1c(Cl)ccc(F)c1Cl [Crizotinib] (partner 1 µM)
Summary of the method: as §1

[3] = compound: CCN(CC)CCNC(=O)c1c(C)[nH]c(/C=C2\C(=O)Nc3ccc(F)cc32)c1C [Sunitinib] + Cc1cc(Nc2cc(N3CCN(C)CC3)nc(Sc3ccc(NC(=O)C4CC4)cc3)n2)n[nH]1 [Tozasertib] (partner 0.1 µM)
Summary of the method: as §1

[4] = compound: CCN(CC)CCNC(=O)c1c(C)[nH]c(/C=C2\C(=O)Nc3ccc(F)cc32)c1C [Sunitinib] + O=C(CCCCCCC(=O)Nc1ccccc1)NO [Vorinostat] (partner 1 µM)
Summary of the method: as §1

Cell Line	relative viability ([1]; first compound 0.06325 µM)	relative viability ([1]; first compound 0.2 µM)	relative viability ([1]; first compound 0.6325 µM)	relative viability ([1]; first compound 2 µM)	relative viability ([2]; first compound 0.02 µM)	relative viability ([2]; first compound 0.06325 µM)	relative viability ([2]; first compound 0.2 µM)	relative viability ([2]; first compound 0.6325 µM)	relative viability ([2]; first compound 2 µM)	relative viability ([3]; first compound 0.02 µM)	relative viability ([3]; first compound 0.06325 µM)	relative viability ([3]; first compound 0.2 µM)	relative viability ([3]; first compound 0.6325 µM)	relative viability ([3]; first compound 2 µM)	relative viability ([4]; first compound 0.02 µM)	relative viability ([4]; first compound 0.06325 µM)	relative viability ([4]; first compound 0.2 µM)	relative viability ([4]; first compound 0.6325 µM)	relative viability ([4]; first compound 2 µM)	relative viability ([1]; first compound 0.02 µM)
NCI-H2085	1.19	1.23	1.18	1.28	0.844	0.817	1.03	0.85	0.798	0.863	0.835	1.02	0.747	0.605	0.784	0.827	0.84	0.813	0.807	–
201T	1.18	1.21	1.18	1.2	0.981	0.978	1.03	1.02	1.06	0.918	0.948	1.1	–	0.88	0.932	1.05	1.02	0.954	0.965	1.19
SK-MES-1	1.34	1.43	1.3	1.3	0.928	0.996	1.07	1.12	0.959	0.892	–	0.979	1	–	1.07	1.09	1.24	1.29	1.08	1.18
NCI-H1666	0.921	1.22	0.836	0.96	1.06	0.978	1.08	1.19	1.07	0.676	0.685	0.719	0.655	0.71	1.12	1.06	1.11	0.996	–	1.03
LU99A	0.765	–	0.882	0.788	0.517	0.524	0.605	0.764	0.674	0.296	0.285	0.267	0.273	0.273	0.468	0.625	0.514	0.516	0.44	0.807
LC-2-ad	0.495	0.714	0.406	0.355	0.446	0.554	0.452	0.521	0.534	0.479	0.484	0.486	0.502	0.493	0.673	0.767	0.774	0.799	0.698	0.381
NCI-H2009	1.19	1.26	1.16	1.26	1.01	1.03	1.16	1.13	1.04	0.695	0.747	0.858	0.78	0.716	0.725	0.765	0.828	0.746	0.723	1.18
NCI-H520	1.11	1.21	1.02	0.897	0.83	0.699	0.856	0.63	0.601	0.44	0.384	0.435	0.375	0.421	0.694	0.793	0.569	0.674	0.578	–
EKVX	0.595	1.13	–	0.968	0.966	1.14	1.22	–	0.958	0.411	0.39	0.476	0.459	0.366	0.802	–	0.882	0.806	0.728	0.608
NCI-H1355	0.961	0.921	0.923	0.983	0.982	1.08	1.25	1.1	1.12	0.529	0.561	0.601	0.594	0.406	0.638	0.75	0.793	0.751	0.678	0.841
SW 1573	1.18	1.07	1.12	0.976	0.736	0.855	–	0.976	0.792	0.153	0.22	0.205	0.155	0.195	0.643	0.915	0.783	1.07	0.899	1.04
NCI-H838	1.23	1.28	1.13	0.91	0.768	0.863	0.916	0.884	0.64	0.301	0.311	0.314	0.266	0.246	0.715	0.803	0.758	0.725	0.65	1.1
NCI-H1915	0.765	0.833	0.815	0.805	–	0.911	0.998	0.911	0.966	0.415	0.418	0.46	0.453	0.465	0.483	0.538	0.562	0.5	0.505	0.764
NCI-H647	1.18	–	1.24	1.22	0.988	0.998	1.19	1.15	0.941	0.344	0.294	0.262	0.345	0.309	0.469	0.572	0.795	0.648	0.643	0.988
PC-3 [JPC-3]	0.906	0.846	0.879	0.797	1.03	0.943	1.01	1.02	0.984	0.912	0.909	0.954	0.936	0.867	0.919	0.805	0.858	0.904	0.928	0.843
NCI-H1993	1.01	–	0.872	0.905	0.846	0.741	0.872	0.966	0.74	0.527	0.581	0.678	0.605	0.586	0.857	0.727	0.911	0.747	0.9	0.923
ChaGo-K-1	1.02	0.978	0.914	0.936	1.06	1.14	1.34	1.22	1.12	0.211	0.209	0.209	0.237	0.191	0.736	0.831	0.887	0.773	0.746	0.911
